{"source": "ChEMBL document CHEMBL4808211", "about": "“Exploration and Biological Evaluation of Basic Heteromonocyclic Propanamide Derivatives as SARDs for the Treatment of Enzalutamide-Resistant Prostate Cancer” (J Med Chem, 2021)", "tested_on": "MR49F", "test": "animal or person", "conditions": "Mus musculus, po, 672 h, read-out: TGI", "description": "Antitumor activity against human MR49F cells xenografted in NOD SCID NSG mouse assessed as tumor growth inhibition at 60 mg/kg/day, po measured twice weekly for 28 days relative to control", "data": [{"smiles": "C[C@](O)(Cn1cc(-c2ccc(F)cc2)nn1)C(=O)Nc1ccc(C#N)c(C(F)(F)F)c1", "values": [{"measurement": "inhibition in vivo at 60 mg/kg/day", "result": 95, "unit": "%"}]}]}
